Measured values as given in patent US12084411B2, “Hinokitiol analogues, methods of preparing and pharmaceutical compositions thereof” (The Board of Trustees of the University of Illinois, priority 2018, dated 2024).

What was measured:
[1] = Iron (II) binding affinity, ferrozine competition assay
Experimental: Specifically, the association constant for iron (II) was determined by a ferrozine competition assay (KA of ferrozine=3.65×10^15) (60). FeCl2 (25 μM) was pre-mixed with ferrozine (75 μM) in a 25 mM MES/Tris buffer at pH=7.0 containing 62.5 mM sodium ascorbate. Then increasing concentrations of small molecule (from 40X stocks in DMSO) were added to the indicated final concentrations. The solutions were allowed to equilibrate for 24 hours before reading of the absorbance at 562 nm. […] The system was allowed to equilibrate overnight, and the absorbance corresponding to the Fe(chelator)3 complex was determined. The EC50 values for each chelator were calculated by a nonlinear curve fit (Hill1) on OriginPro by plotting the absorbance vs. concentration of titrant, and the KA for each complex was determined from the equation: KA, ligand=(KA, competitor*[EC50])/[ligand] where the ligand is the molecule originally bound to iron, and the competitor is the competing chelator.

[2] = Hinokitiol binding selectivity by ICP-MS; settings: for Extracted Metal 1:1 Hino:Metals: 1 mM Hino; for Extracted Metal 1:1 Hino:Metals / Extracted Metal 10:1 Hino:Metals: 1 mM of each metal; for Extracted Metal 10:1 Hino:Metals: 60 mM Hino
Experimental: The binding selectivity for hinokitiol with multiple divalent metals was determined similar to previously described (32). […] The colored solution was allowed to incubate for 4 hours at room temperature. The solution was diluted in buffer, and extracted (×3) using 1:1 Hexanes:Ethyl Acetate. […] Control experiments were performed similar to those described above but in the absence of hinokitiol. No metal was detected in the organic layer by ICP-MS. Control experiments were also performed similar to those described above but using 60 mM hinokitiol. Metal content after extraction was compared to the initial metal content in the aqueous solution before extraction, and it was determined that the metal:hinokitiol complexes are extracted into the organic layer.

[3] = test system: wild type (+/+) mice; assay: 59Fe gut absorption in wild type mice; assay type: in vivo; settings: 1.5 mg/kg, after one hour
Experimental: Temporal live cell imaging of labile iron levels in shDMT1 Caco-2 monolayers was performed after staining of Caco-2 monolayers with calcein green-AM (5 μM) in the apical and basolateral liquid for 30 minutes in pH=7.4 DMEM. […] Final volume administered was 1.5 mL/kg for each mouse, correcting for individual body weight. […] […] Radioactivity was quantified by gamma counting and calculated as the percentage of gavaged dose (±SEM). Experiments were performed with 4 genotyped-matched mice/day; preliminary analysis determined there were no gender effects on uptake of ^59Fe after intragastric gavage; mixed genders were used in the experiments shown.

[4] = test system: fet3Δftr1Δ yeast; assay: Growth rescue of iron-deficient yeast with small molecules on agar plates; assay type: cell-based, Saccharomyces cerevisiae; settings: low iron SD-agar plates, 10 μM FeCl3
[5] = Determination of the pKa of hinokitiol; assay type: physicochemical; settings: 0.1 M KCl solution in water, spectrophotometric titration
Experimental: The pKa of hinokitiol was determined by spectrophotometric titration with varying pH. Hinokitiol (100 μM) was dissolved in a 0.1 M KCl solution in H2O and acidified to pH=3.0 (using 0.1 M HCl). The UV-Vis spectrum was repeatedly obtained upon sequential titration of 0.1 M KOH to obtain a range of pHs (3.0, 3.4, 3.9, 4.2, 4.6, 4.9, 6.0, 6.4, 7.0, 7.2, 7.6, 8.4, 9.3, 9.7, 10.4, 10.9, 11.7, 12.0).

[6] = Single-dose in vivo pharmacokinetics of hinokitiol in mice; settings: 100 mg/kg
Experimental: FIGS. 29A-29B show single-dose in vivo pharmacokinetics of hinokitiol in mice. Mice were mixed C57BL/6 and 129/Sv background (2-3 mo. old) were administered various concentrations of hinokitiol (30 or 100 mg Hino/kg body weight) by two different routes (A) intraperitoneal injection and (B) oral gavage. Plasma samples were collected at various timepoints (5-360 minutes) for drug measurement by HPLC.
In addition to evaluating the pharmacodynamics (effect) of hinokitiol in Al, the pharmacokinetics of hinokitiol were characterized to guide the optimal dose scheme for treatment.

[7] = test system: normal Caco-2 monolayers; assay: Transepithelial iron transport in normal Caco-2 monolayers; assay type: cell-based, Human; settings: same concentration as in deficient system
Experimental: Media from differentiated Caco-2 monolayers (P25-50, 21-28 days post seeding) grown on PET inserts in 6-well plates was aspirated, and monolayers were rinsed with PBS. […] The monolayers were then incubated for four hours at 37° C. unless otherwise noted. A 100 μL aliquot of the basolateral fluid was removed, diluted in scintillation cocktail, and radioactivity was determined on a liquid scintillation counter to quantify relative amounts of ^55Fe transport. To determine intracellular ^55Fe, the basolateral and apical media was removed, and the monolayer was rinsed with PBS (×2). The cells were then lysed with 500 μL of 200 mM NaOH with nutator mixing overnight, and radioactivity was determined on a liquid scintillation counter after diluting the cell lysate in scintillation cocktail. All values were normalized to shControl monolayers unless otherwise noted. Absolute iron levels were determined through calibration of ^55Fe radioactivity levels with known standards and average mg of protein per membrane was determined by protein lysis with RIPA buffer containing protease inhibitors and quantified through a BCA kit according to manufacturer instructions.

[8] = test system: DMT1-deficient Caco-2 monolayers; assay: 55Fe immunoprecipitation of ferritin in Caco-2 monolayers; assay type: cell-based, Human; settings: apical hinokitiol 500 nM
Experimental: Immunoprecipitation of ferritin was performed using human anti-FTL1 (Santa Cruz sc-74513) and Protein G PLUS-Agarose beads (Santa Cruz sc-2002). […] Cell lysate was incubated with primary antibody (1:100 dilution) at room temperature for 1 hour, then with the secondary antibody (1:10 dilution) at room temperature for 1 hour with constant mixing. Repeated centrifugations and PBS rinses were performed, and the radioactive levels in the agarose pellet were determined by dilution in scintillation fluid.

[9] = test system: Mfrn1-deficient zebrafish; assay: Hemoglobinization in Mfrn1-deficient zebrafish; assay type: in vivo, Danio rerio
[10] = WST-8 toxicity in Caco-2 cells; settings: human
Experimental: Determination of small molecule-mediated toxicity in Caco-2, MEL, and/or J774 cells was performed according to manufacturer instructions using a WST-8 kit (Cayman Chemical 10010199) similar to previously reported (76) using a 1000× stock of the indicated small molecule in DMSO to give the indicated final concentration.

[11] = test system: fet3Δarn1-4Δ yeast; assay: Growth rescue of yeast missing all known siderophore transporters on agar plates; assay type: cell-based, Saccharomyces cerevisiae; settings: 10 μM hinokitiol, 10 μM FeCl3
Experimental: MES/Tris buffer at pH=7.0 containing 2% agarose gel, 10 μM FeCl3, and 10 μM hinokitiol (from 40X stock in DMSO). […] Yeast were grown overnight in YPD media and diluted to an optical density at 600 nm (OD600) of 1.0 in low iron SD media before 10-fold serial dilution and inoculation of these yeast suspensions (10 μL per dot) onto the low iron SD-agar plates described above containing either DMSO vehicle or hinokitiol (10 μM from 40X DMSO stock).

[12] = Metal efflux from liposomes using PhenGreen; assay type: biochemical
Experimental: Hinokitiol-promoted release of different divalent metals from POPC liposomes was performed by tracking the quenching of PhenGreen (Fisher P14312) similar to previously reported (67, 68). […] In all cases, liposomes were prepared using 5 mM of either FeCl2, MnCl2, CoCl2, NiCl2, ZnCl2, or CuCl2 added to the internal buffer. […] The liposome suspension was diluted to 1 mM of phosphorus. The liposome suspension was transferred to a 96-well plate, and either DMSO or 2 μM hinokitiol (from a 40X stock in DMSO) was added at t=2 min. […] After one hour, the liposomes were lysed with Triton-X and the fluorescence was recorded. […] The DMSO-treated and hinokitiol-treated liposomes had similar fluorescence quenching levels after lysis. […] The t1/2 values were calculated using an asymptotic fit in OriginPro. The t1/2 values indicate the time required to reach half of the maximum metal efflux for each metal.

CC(C)c1cccc(=O)c(O)c1 [hinokitiol]
KA for iron (II) ([1]; pH 7.0): 5.1×10^15 | KA for iron (II) ([1]; pH 7.0, listed as Hinokitiol): 5.1 × 10^15 | Cu^II competitively bound relative to Fe^II ([2]; 1:1 Hino:Metals): 10 fold | Extracted Metal 1:1 Hino:Metals ([2]; Co^II): 0.001 ± 0.000 µmol | Extracted Metal 10:1 Hino:Metals ([2]; Co^II): 41 ± 0.3 µmol | Extracted Metal 1:1 Hino:Metals ([2]; Cu^II): 45.15 ± 6.46 µmol | Extracted Metal 10:1 Hino:Metals ([2]; Cu^II): 46 ± 0.2 µmol | Extracted Metal 1:1 Hino:Metals ([2]; Fe^II): 4.80 ± 0.61 µmol | Extracted Metal 10:1 Hino:Metals ([2]; Fe^II): 46 ± 0.4 µmol | Extracted Metal 1:1 Hino:Metals ([2]; Mn^II): 0.0003 ± 0.0001 µmol | Extracted Metal 10:1 Hino:Metals ([2]; Mn^II): 37 ± 0.8 µmol | Extracted Metal 10:1 Hino:Metals ([2]; Ni^II): 35 ± 0.3 µmol | Extracted Metal 1:1 Hino:Metals ([2]; Zn^II): 0.0015 ± 0.0006 µmol | Extracted Metal 10:1 Hino:Metals ([2]; Zn^II): 38 ± 0.2 µmol | rate of iron absorption [3]: statistically significant increase | growth rescue of fet3Δftr1Δ yeast [4]: highly effective | pKa [5]: 7.33 | half-life [6]: increased half-life | effect on transepithelial iron transport in wild type system [7]: negligible effects | 55Fe incorporation into ferritin [8]: allows for ^55Fe incorporation into ferritin | hemoglobinization and GFP-positive erythrocytes ([9]; Mfrn1-deficient morphant zebrafish, forty-eight hours): restored hemoglobinization and the number of GFP-positive erythrocytes | anemic phenotype ([9]; embryos from heterozygous cross of +/frs fish): rescued the anemic phenotype | EC90 [10]: > 100 µM | growth restoration of fet3Δarn1-4Δ yeast [11]: restores growth | Cu^II transport rate relative to Fe^II in liposomes [12]: 80 fold
